The source of these data is US20120121591A1 (priority 2009, published 2012).

Assay type in all cases: cell-based
In test [1] the test system is IFN-g secretion from T cells in human whole blood. The following applies: read-out: WB (IFNg) IC50 (nM, Avg).
The target in the next test is hKv1.3 (Homo sapiens, UniProt P22001). Briefly: cell-based. The following applies: Kv1.3 (IWQ) IC50 (nM, Avg).
The test system of test [2] is IL-2 secretion from T cells in human whole blood. Conditions: read-out: WB (IL-2) IC50 (nM, Avg).

Chain of hKv1.3 (P22001 whole entry): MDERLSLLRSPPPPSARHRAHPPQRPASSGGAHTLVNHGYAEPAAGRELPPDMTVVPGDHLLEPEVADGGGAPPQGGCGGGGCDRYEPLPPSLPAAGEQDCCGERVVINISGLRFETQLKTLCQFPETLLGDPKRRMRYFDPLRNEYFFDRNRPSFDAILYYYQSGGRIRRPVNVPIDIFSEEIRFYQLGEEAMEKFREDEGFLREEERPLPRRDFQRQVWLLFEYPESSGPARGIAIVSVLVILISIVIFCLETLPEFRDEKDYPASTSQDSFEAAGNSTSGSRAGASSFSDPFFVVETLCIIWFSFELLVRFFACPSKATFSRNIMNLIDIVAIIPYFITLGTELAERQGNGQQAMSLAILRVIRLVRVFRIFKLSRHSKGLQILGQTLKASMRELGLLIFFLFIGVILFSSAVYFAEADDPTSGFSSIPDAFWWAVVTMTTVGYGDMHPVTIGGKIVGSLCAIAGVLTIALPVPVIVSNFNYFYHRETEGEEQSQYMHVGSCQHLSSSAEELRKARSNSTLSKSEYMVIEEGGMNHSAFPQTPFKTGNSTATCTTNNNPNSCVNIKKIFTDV

Regarding `CC[C@H](C)[C@@H]1NC(=O)[C@@H](NC(=O)[C@H](CO)NC(=O)[C@@H](N)CCCNC(=N)N)CSSC[C@@H](C(=O)O)NC(=O)[C@H](C)NC(=O)CNC(=O)[C@@H]2CSSC[C@@H]3NC(=O)[C@H](CCC(N)=O)NC(=O)[C@H](Cc4ccccc4)NC(=O)[C@H](C)NC(=O)[C@H]([C@@H](C)O)NC(=O)[C@H](CSSC[C@H](NC(=O)[C@H](Cc4ccccc4)NC(=O)[C@H](CO)NC(=O)[C@H](CC(C)C)NC(=O)[C@H](CCCNC(=N)N)NC(=O)[C@H](Cc4ccc(O)cc4)NC(=O)[C@H](CCCCN)NC(=O)[C@H](CCSC)NC(=O)[C@H](CO)NC(=O)[C@H](Cc4c[nH]cn4)NC(=O)[C@H](CCCCN)NC3=O)C(=O)N[C@@H](CCCNC(=N)N)C(=O)N[C@@H](CCCCN)C(=O)N[C@@H]([C@@H](C)O)C(=O)N2)NC(=O)[C@H](CCCNC(=N)N)NC(=O)[C@H](CO)NC(=O)[C@H](CCCCN)NC(=O)[C@@H]2CCCN2C(=O)[C@H]([C@@H](C)CC)NC(=O)[C@H]([C@@H](C)O)NC(=O)[C@H](CC(=O)O)NC1=O` [[Ala34]ShK], the IC50 (usually the concentration at which inhibition is half-maximal) in test [1] amounted to 0.075 nM; against hKv1.3, 0.123 nM; in test [2], 0.063 nM.

As for `CC[C@H](C)[C@@H]1NC(=O)[C@@H](NC(=O)[C@H](CCCNC(=N)N)NC(=O)[C@@H](N)CCCNC(=N)N)CSSC[C@@H](C(=O)O)NC(=O)[C@H]([C@@H](C)O)NC(=O)CNC(=O)[C@@H]2CSSC[C@@H]3NC(=O)[C@H](CCC(N)=O)NC(=O)[C@H](Cc4ccccc4)NC(=O)[C@H](C)NC(=O)[C@H]([C@@H](C)O)NC(=O)[C@H](CSSC[C@H](NC(=O)[C@H](Cc4ccccc4)NC(=O)[C@H](CO)NC(=O)[C@H](CC(C)C)NC(=O)[C@H](CCCNC(=N)N)NC(=O)[C@H](Cc4ccc(O)cc4)NC(=O)[C@H](CCCCN)NC(=O)[C@H](CCSC)NC(=O)[C@H](CO)NC(=O)[C@H](Cc4c[nH]cn4)NC(=O)[C@H](CCCCN)NC3=O)C(=O)N[C@@H](CCCNC(=N)N)C(=O)N[C@@H](CCCCN)C(=O)N[C@@H]([C@@H](C)O)C(=O)N2)NC(=O)[C@H](CCCNC(=N)N)NC(=O)[C@H](CO)NC(=O)[C@H](CCCCN)NC(=O)[C@@H]2CCCN2C(=O)[C@H]([C@@H](C)CC)NC(=O)[C@H]([C@@H](C)O)NC(=O)[C@H](CC(=O)O)NC1=O` [[Arg2]ShK], the IC50 was 0.087 nM in test [1], 0.074 nM against hKv1.3 and 0.097 nM in test [2].

For `CC[C@H](C)[C@@H]1NC(=O)[C@@H](NC(=O)[C@H](CO)NC(=O)[C@@H](N)CCCNC(=N)N)CSSC[C@@H](C(=O)O)NC(=O)[C@H]([C@@H](C)O)NC(=O)CNC(=O)[C@@H]2CSSC[C@@H]3NC(=O)[C@H](CCC(N)=O)NC(=O)[C@H](Cc4ccccc4)NC(=O)[C@H](C)NC(=O)[C@H]([C@@H](C)O)NC(=O)[C@H](CSSC[C@H](NC(=O)[C@H](Cc4ccccc4)NC(=O)[C@H](CO)NC(=O)[C@H](CC(C)C)NC(=O)[C@H](CCCNC(=N)N)NC(=O)[C@H](Cc4ccc(O)cc4)NC(=O)[C@H](CCCCN)NC(=O)[C@H](CCSC)NC(=O)[C@H](CO)NC(=O)[C@H](Cc4c[nH]cn4)NC(=O)[C@H](CCCCN)NC3=O)C(=O)N[C@@H](CCCNC(=N)N)C(=O)N[C@@H](CCCCN)C(=O)N[C@@H]([C@@H](C)O)C(=O)N2)NC(=O)[C@H](CCCNC(=N)N)NC(=O)[C@H](CO)NC(=O)[C@H](CCCCN)NC(=O)[C@@H]2CCCN2C(=O)[C@H]([C@@H](C)CC)NC(=O)[C@H]([C@@H](C)O)NC(=O)[C@H](CCCNC(=N)N)NC1=O` [[Arg5]ShK], the results for the IC50 (in test [1]; at hKv1.3; in test [2]) were 91.7 nM, 3.3 nM and 47.3 nM, respectively.

`CC[C@H](C)[C@@H]1NC(=O)[C@@H](NC(=O)[C@H](CO)NC(=O)[C@@H](N)CCCNC(=N)N)CSSC[C@@H](C(=O)O)NC(=O)[C@H]([C@@H](C)O)NC(=O)CNC(=O)[C@@H]2CSSC[C@@H]3NC(=O)[C@H](CCC(N)=O)NC(=O)[C@H](Cc4ccccc4)NC(=O)[C@H](C)NC(=O)[C@H]([C@@H](C)O)NC(=O)[C@H](CSSC[C@H](NC(=O)[C@H](Cc4ccccc4)NC(=O)[C@H](CO)NC(=O)[C@H](CC(C)C)NC(=O)[C@H](CCCNC(=N)N)NC(=O)[C@H](Cc4ccc(O)cc4)NC(=O)[C@H](CCCCN)NC(=O)[C@H](CCSC)NC(=O)[C@H](CO)NC(=O)[C@H](Cc4c[nH]cn4)NC(=O)[C@H](CCCCN)NC3=O)C(=O)N[C@@H](CCCNC(=N)N)C(=O)N[C@@H](CCCCN)C(=O)N[C@@H]([C@@H](C)O)C(=O)N2)NC(=O)[C@H](CCCNC(=N)N)NC(=O)[C@H](CO)NC(=O)[C@H](CCCCN)NC(=O)[C@@H]2CCCN2C(=O)[C@H]([C@@H](C)CC)NC(=O)[C@H](CCCNC(=N)N)NC(=O)[C@H](CC(=O)O)NC1=O` [[Arg6]ShK]: the IC50 turned out to be 0.4 nM in test [1], 0.178 nM against hKv1.3 and 0.246 nM in test [2].

With `CC[C@H](C)[C@@H]1NC(=O)[C@@H](NC(=O)[C@H](CO)NC(=O)[C@@H](N)CCCNC(=N)N)CSSC[C@@H](C(=O)O)NC(=O)[C@H]([C@@H](C)O)NC(=O)CNC(=O)[C@@H]2CSSC[C@@H]3NC(=O)[C@H](CCC(N)=O)NC(=O)[C@H](Cc4ccccc4)NC(=O)[C@H](C)NC(=O)[C@H]([C@@H](C)O)NC(=O)[C@H](CSSC[C@H](NC(=O)[C@H](Cc4ccccc4)NC(=O)[C@H](CO)NC(=O)[C@H](CC(C)C)NC(=O)[C@H](CCCNC(=N)N)NC(=O)[C@H](Cc4ccc(O)cc4)NC(=O)[C@H](CCCCN)NC(=O)[C@H](CCSC)NC(=O)[C@H](CO)NC(=O)[C@H](Cc4c[nH]cn4)NC(=O)[C@H](CCCCN)NC3=O)C(=O)N[C@@H](CCCNC(=N)N)C(=O)N[C@@H](CCCCN)C(=O)N[C@@H]([C@@H](C)O)C(=O)N2)NC(=O)[C@H](CCCNC(=N)N)NC(=O)[C@H](CO)NC(=O)[C@H](CCCCN)NC(=O)[C@@H]2CCCN2C(=O)[C@H](CCCNC(=N)N)NC(=O)[C@H]([C@@H](C)O)NC(=O)[C@H](CC(=O)O)NC1=O` [[Arg7]ShK], the IC50 in test [1] amounted to 11.1 nM; on hKv1.3, 0.301 nM; in test [2], 6.39 nM.

Regarding `CC[C@H](C)[C@@H]1NC(=O)[C@@H](NC(=O)[C@H](CO)NC(=O)[C@@H](N)CCCNC(=N)N)CSSC[C@@H](C(=O)O)NC(=O)[C@H]([C@@H](C)O)NC(=O)CNC(=O)[C@@H]2CSSC[C@@H]3NC(=O)[C@H](CCC(N)=O)NC(=O)[C@H](Cc4ccccc4)NC(=O)[C@H](C)NC(=O)[C@H]([C@@H](C)O)NC(=O)[C@H](CSSC[C@H](NC(=O)[C@H](Cc4ccccc4)NC(=O)[C@H](CO)NC(=O)[C@H](CC(C)C)NC(=O)[C@H](CCCNC(=N)N)NC(=O)[C@H](Cc4ccc(O)cc4)NC(=O)[C@H](CCCCN)NC(=O)[C@H](CCSC)NC(=O)[C@H](CO)NC(=O)[C@H](Cc4c[nH]cn4)NC(=O)[C@H](CCCCN)NC3=O)C(=O)N[C@@H](CCCNC(=N)N)C(=O)N[C@@H](CCCCN)C(=O)N[C@@H]([C@@H](C)O)C(=O)N2)NC(=O)[C@H](CCCNC(=N)N)NC(=O)[C@H](CO)NC(=O)[C@H](CCCCN)NC(=O)[C@H](CCCNC(=N)N)NC(=O)[C@H]([C@@H](C)CC)NC(=O)[C@H]([C@@H](C)O)NC(=O)[C@H](CC(=O)O)NC1=O` [[Arg8]ShK], the IC50 in test [1] is 1.42 nM; at hKv1.3, 0.07 nM; in test [2] it was 0.187 nM.

In the case of `CC[C@H](C)[C@@H]1NC(=O)[C@@H](NC(=O)[C@H](CO)NC(=O)[C@@H](N)CCCNC(=N)N)CSSC[C@@H](C(=O)O)NC(=O)[C@H]([C@@H](C)O)NC(=O)CNC(=O)[C@@H]2CSSC[C@@H]3NC(=O)[C@H](CCC(N)=O)NC(=O)[C@H](Cc4ccccc4)NC(=O)[C@H](C)NC(=O)[C@H]([C@@H](C)O)NC(=O)[C@H](CSSC[C@H](NC(=O)[C@H](Cc4ccccc4)NC(=O)[C@H](CO)NC(=O)[C@H](CC(C)C)NC(=O)[C@H](CCCNC(=N)N)NC(=O)[C@H](Cc4ccc(O)cc4)NC(=O)[C@H](CCCCN)NC(=O)[C@H](CCSC)NC(=O)[C@H](CO)NC(=O)[C@H](Cc4c[nH]cn4)NC(=O)[C@H](CCCCN)NC3=O)C(=O)N[C@@H](CCCNC(=N)N)C(=O)N[C@@H](CCCCN)C(=O)N[C@@H]([C@@H](C)O)C(=O)N2)NC(=O)[C@H](CCCNC(=N)N)NC(=O)[C@H](CO)NC(=O)[C@H](CCCNC(=N)N)NC(=O)[C@@H]2CCCN2C(=O)[C@H]([C@@H](C)CC)NC(=O)[C@H]([C@@H](C)O)NC(=O)[C@H](CC(=O)O)NC1=O` [[Arg9]ShK], the IC50 was 0.116 nM in test [1], 0.096 nM on hKv1.3 and 0.108 nM in test [2].

`CC[C@H](C)[C@@H]1NC(=O)[C@@H](NC(=O)[C@H](CO)NC(=O)[C@@H](N)CCCNC(=N)N)CSSC[C@@H](C(=O)O)NC(=O)[C@H]([C@@H](C)O)NC(=O)CNC(=O)[C@@H]2CSSC[C@@H]3NC(=O)[C@H](CCC(N)=O)NC(=O)[C@H](Cc4ccccc4)NC(=O)[C@H](C)NC(=O)[C@H]([C@@H](C)O)NC(=O)[C@H](CSSC[C@H](NC(=O)[C@H](Cc4ccccc4)NC(=O)[C@H](CO)NC(=O)[C@H](CC(C)C)NC(=O)[C@H](CCCNC(=N)N)NC(=O)[C@H](Cc4ccc(O)cc4)NC(=O)[C@H](CCCCN)NC(=O)[C@H](CCSC)NC(=O)[C@H](CO)NC(=O)[C@H](Cc4c[nH]cn4)NC(=O)[C@H](CCCCN)NC3=O)C(=O)N[C@@H](CCCNC(=N)N)C(=O)N[C@@H](CCCCN)C(=O)N[C@@H]([C@@H](C)O)C(=O)N2)NC(=O)[C@H](CCCNC(=N)N)NC(=O)[C@H](CCCNC(=N)N)NC(=O)[C@H](CCCCN)NC(=O)[C@@H]2CCCN2C(=O)[C@H]([C@@H](C)CC)NC(=O)[C@H]([C@@H](C)O)NC(=O)[C@H](CC(=O)O)NC1=O` [[Arg10]ShK]: the IC50 worked out at 0.068 nM in test [1], 0.07 nM against hKv1.3 and 0.029 nM in test [2].
